The text below walks through data of publication PMC7763331, “First Evidence of a Protective Effect of Plant Bioactive Compounds against H2O2-Induced Aconitase Damage in Durum Wheat Mitochondria” (Antioxidants, 2020).

Test [1] concerns the target T1, m-aconitase (Sus scrofa, UniProt P16276).
T1 construct: gene ACO2
T1 sequence (P16276 28-781): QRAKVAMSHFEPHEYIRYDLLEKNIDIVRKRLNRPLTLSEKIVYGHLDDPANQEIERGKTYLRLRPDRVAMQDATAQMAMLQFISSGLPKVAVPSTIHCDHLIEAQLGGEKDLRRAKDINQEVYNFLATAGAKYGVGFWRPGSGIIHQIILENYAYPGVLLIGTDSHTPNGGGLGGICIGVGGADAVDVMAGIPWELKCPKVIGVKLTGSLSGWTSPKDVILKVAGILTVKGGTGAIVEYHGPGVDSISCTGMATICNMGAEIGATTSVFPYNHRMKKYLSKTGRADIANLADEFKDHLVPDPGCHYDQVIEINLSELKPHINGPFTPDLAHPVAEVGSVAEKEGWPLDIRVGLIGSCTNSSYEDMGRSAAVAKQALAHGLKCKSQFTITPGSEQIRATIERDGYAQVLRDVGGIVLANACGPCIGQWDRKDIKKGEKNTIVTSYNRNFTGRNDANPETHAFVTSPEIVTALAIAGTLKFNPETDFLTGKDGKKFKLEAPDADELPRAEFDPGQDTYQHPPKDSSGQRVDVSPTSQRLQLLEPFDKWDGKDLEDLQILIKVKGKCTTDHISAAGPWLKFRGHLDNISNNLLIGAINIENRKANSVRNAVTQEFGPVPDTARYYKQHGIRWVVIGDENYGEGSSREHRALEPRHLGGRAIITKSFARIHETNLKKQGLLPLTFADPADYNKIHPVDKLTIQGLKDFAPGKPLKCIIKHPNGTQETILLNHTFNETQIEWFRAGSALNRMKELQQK
The test is described as follows: aconitase/isocitrate dehydrogenase coupled assay, NADPH absorbance at […] nm. It counts as biochemical. Conditions: pH 8.0, 25 °C, 20 mM citrate; 10 min pre-incubation, no H2O2; activator, upper limit (up to about).

For test [2], the target named is T1, m-aconitase. Described as above. It counts as biochemical. Conditions: pH 8.0, 25 °C, 20 mM citrate; 10 min pre-incubation, no H2O2; activator.
In test [3] the target is T1, m-aconitase. The description is as above. Conditions: pH 8.0, 25 °C, 20 mM citrate; 10 min pre-incubation, no H2O2; activator, upper limit (up to about). It counts as biochemical. The source holds these as a separate data set.
In another test the test system is T2, DWM-aconitase.
T2 construct: gene ACO
Conditions: 100 mM Tris-HCl pH 8.0, 0.1% Triton X-100, 25 °C, 1 mM NADP+, 5 mM MnCl2; citrate 0.5–20 mM; lysed mitochondria.

Take `COc1cc(/C=C/C(=O)O)ccc1O` [ferulic acid]: the “% activation at 100-150 μM” value on m-aconitase [1] was ~ 10%. In the case of `O=c1cc(-c2ccc(O)cc2)oc2cc(O)cc(O)c12` [apigenin], at m-aconitase [2], the “% activation at 50-150 μM” value is on record as ~ 10%.

Take `O=c1c(O)c(-c2ccc(O)c(O)c2)oc2cc(O)cc(O)c12` [quercetin]: at m-aconitase [3], the “% activation at 150 μM” value is on record as ~ 20%. Take `O=C(O)CC(O)(CC(=O)O)C(=O)O` [citrate]: the Km (in general, the substrate concentration at which the rate is half of its maximum) in the test with DWM-aconitase amounted to 4.8 ± 0.9 mM.
